Assay results reported in ChEMBL document CHEMBL1139599, “Benzothieno[3,2-b]indole derivatives as potent selective estrogen receptor modulators” (Bioorg Med Chem Lett, 2005).

Key:
Estrogen receptor = biological target: T1, Estrogen receptor (Homo sapiens, UniProt P03372); assay: Inhibition of [3H]17-beta-estradiol binding to human estrogen receptor alpha
T1 sequence (P03372 whole entry): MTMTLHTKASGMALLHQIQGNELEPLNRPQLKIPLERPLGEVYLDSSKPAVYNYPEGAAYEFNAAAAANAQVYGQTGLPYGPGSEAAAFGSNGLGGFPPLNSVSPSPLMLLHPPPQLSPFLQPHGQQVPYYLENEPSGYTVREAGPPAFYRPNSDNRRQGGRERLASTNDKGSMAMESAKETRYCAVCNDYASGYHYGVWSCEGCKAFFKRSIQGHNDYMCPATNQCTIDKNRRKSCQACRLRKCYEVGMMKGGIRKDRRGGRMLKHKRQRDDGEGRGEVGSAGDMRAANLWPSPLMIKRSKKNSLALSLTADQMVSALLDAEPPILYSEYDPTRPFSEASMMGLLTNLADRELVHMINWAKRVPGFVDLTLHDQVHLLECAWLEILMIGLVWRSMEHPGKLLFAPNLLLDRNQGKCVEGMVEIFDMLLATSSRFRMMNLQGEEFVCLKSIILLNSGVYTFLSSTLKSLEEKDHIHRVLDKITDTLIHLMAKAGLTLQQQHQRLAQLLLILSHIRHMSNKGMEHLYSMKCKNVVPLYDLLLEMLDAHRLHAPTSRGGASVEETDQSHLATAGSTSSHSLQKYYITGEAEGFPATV

[1] = biological target: T2, Estrogen receptor (Mus musculus) (UniProt O08537+P19785); settings: Uterus
Description: Uterine wet weight in ovariectomized mice after 4 weeks of subcutaneous administration at 4 umol/kg (n=5)

Estrogen receptor beta = Estrogen receptor beta (Homo sapiens, UniProt Q92731); assay: Inhibition of [3H]17-beta-estradiol binding to human estrogen receptor beta
[2] = biological target: T2, Estrogen receptor (Mus musculus)

Chain of Estrogen receptor beta (Q92731 whole entry): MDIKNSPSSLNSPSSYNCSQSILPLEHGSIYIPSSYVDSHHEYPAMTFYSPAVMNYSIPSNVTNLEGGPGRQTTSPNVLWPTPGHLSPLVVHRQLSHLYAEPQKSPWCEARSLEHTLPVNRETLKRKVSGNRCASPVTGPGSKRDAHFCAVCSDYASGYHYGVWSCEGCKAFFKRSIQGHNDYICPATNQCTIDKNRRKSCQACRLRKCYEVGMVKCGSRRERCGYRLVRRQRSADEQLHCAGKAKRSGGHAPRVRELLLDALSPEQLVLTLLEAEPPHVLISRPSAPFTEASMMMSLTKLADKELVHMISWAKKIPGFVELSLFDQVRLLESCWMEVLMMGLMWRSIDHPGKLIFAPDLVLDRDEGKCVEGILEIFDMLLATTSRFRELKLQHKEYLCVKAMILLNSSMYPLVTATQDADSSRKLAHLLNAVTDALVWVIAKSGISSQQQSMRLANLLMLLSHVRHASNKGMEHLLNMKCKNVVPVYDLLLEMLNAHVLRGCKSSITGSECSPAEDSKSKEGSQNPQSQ
T2 sequence (O08537 whole entry, looked up): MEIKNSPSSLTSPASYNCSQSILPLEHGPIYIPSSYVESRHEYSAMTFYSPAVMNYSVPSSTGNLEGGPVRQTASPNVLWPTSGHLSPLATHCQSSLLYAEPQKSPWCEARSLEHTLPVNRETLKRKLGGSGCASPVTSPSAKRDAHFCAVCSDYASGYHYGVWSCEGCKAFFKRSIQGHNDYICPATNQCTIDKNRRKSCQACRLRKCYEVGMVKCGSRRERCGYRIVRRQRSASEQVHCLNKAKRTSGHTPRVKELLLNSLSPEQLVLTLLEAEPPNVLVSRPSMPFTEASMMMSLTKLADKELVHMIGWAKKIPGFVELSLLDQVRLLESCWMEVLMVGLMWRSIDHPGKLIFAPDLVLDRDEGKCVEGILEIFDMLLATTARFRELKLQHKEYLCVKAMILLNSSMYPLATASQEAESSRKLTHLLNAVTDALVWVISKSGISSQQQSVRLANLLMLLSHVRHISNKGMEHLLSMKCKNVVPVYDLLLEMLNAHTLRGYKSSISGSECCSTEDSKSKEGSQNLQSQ
T2 sequence (P19785 whole entry, looked up): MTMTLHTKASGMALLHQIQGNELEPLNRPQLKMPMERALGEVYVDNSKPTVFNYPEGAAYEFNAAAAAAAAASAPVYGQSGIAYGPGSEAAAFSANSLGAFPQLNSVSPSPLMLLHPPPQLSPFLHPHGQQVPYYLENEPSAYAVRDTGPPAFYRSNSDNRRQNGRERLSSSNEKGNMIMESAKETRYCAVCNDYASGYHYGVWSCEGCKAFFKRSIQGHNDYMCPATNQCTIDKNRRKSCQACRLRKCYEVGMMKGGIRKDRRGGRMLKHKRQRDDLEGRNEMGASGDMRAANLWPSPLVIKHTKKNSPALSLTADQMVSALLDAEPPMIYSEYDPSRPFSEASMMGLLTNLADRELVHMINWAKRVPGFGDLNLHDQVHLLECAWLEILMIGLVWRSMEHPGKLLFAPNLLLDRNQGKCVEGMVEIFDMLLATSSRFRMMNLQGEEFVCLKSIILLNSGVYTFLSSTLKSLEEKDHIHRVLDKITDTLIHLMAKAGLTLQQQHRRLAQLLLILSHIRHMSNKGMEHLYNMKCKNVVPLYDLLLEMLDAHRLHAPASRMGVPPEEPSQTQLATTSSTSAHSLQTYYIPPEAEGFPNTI

Row | IC50 (Estrogen receptor) [nM] | Wet weight [1] [mg] | IC50 (Estrogen receptor beta) [nM] | BMD [2] [mg/cm3] | Compound
1 | 39 | 34 | 35 | 436 | Oc1ccc2c(c1)sc1c3ccccc3n(Cc3ccc(OCCN4CCCCC4)cc3)c21
2 | 126 | 27 | 215 | 455 | Oc1ccc2c(c1)sc1c3ccccc3n(Cc3ccc(OCCN4CCOCC4)cc3)c21
3 | 18 | 26.2 | 31 | 480 | CN(C)CCOc1ccc(Cn2c3ccc(O)cc3c3sc4cc(O)ccc4c32)cc1
4 | 31.2 | 37.7 | 16.4 | 479 | CCN(CC)CCOc1ccc(Cn2c3ccc(O)cc3c3sc4cc(O)ccc4c32)cc1
5 | 27.2 | 27.6 | 53.9 | 505 | Oc1ccc2c(c1)sc1c3ccccc3n(Cc3ccc(OCCN4CCCC4)cc3)c21
6 | 18 | 28.5 | 16.6 | 444 | Oc1ccc2c(c1)sc1c3ccccc3n(Cc3ccc(OCCN4CCCCCC4)cc3)c21
7 | 2.84 | 44.2 | 11 | 548 | Oc1ccc2c(c1)sc1c3cc(O)ccc3n(Cc3ccc(OCCN4CCCCC4)cc3)c21
8 | 51.4 | 28.2 | 45.6 | 474 | CN(C)CCOc1ccc(Cn2c3ccccc3c3sc4cc(O)ccc4c32)cc1
9 | 57.4 | 34.9 | 25 | 448 | CCN(CC)CCOc1ccc(Cn2c3ccccc3c3sc4cc(O)ccc4c32)cc1

Row | Compound | IC50 (Estrogen receptor) [nM] | Wet weight [1] [mg] | IC50 (Estrogen receptor beta) [nM] | BMD [2] [mg/cm3]
10 | Oc1ccc2c(c1)sc1c3cc(O)ccc3n(Cc3ccc(OCCN4CCCC4)cc3)c21 | 6 | 30.7 | 20.2 | 469
11 | Oc1ccc2c(c1)sc1c3cc(O)ccc3n(Cc3ccc(OCCN4CCOCC4)cc3)c21 | 10 | 26.3 | 21.4 | 470
12 | Oc1ccc2c(c1)sc1c3cc(O)ccc3n(Cc3ccc(OCCN4CCCCCC4)cc3)c21 | 3.34 | 44.2 | 7.26 | 534
